The values that follow come from DBAASP.

≈ marks a conversion by molar mass, not a printed value. Where “and” joins values, the source holds several entries; their conditions need not be identical. Equal values may be shown once. Where only a bound is given, the exact number is not on record here.

As a reminder, the MIC is the lowest concentration that inhibits growth of the organism.

Holding throughout (experiment): ≥ marks a high value that may be exact or a test limit, other limits are often not marked, values filed in µg/mL are converted to µM
The subject of experiment [1] is Escherichia coli.
Experiment [2] has as its system Yersinia enterocolitica.
Experiment [3] deals with Candida albicans ATCC 10231.
Experiment [4] deals with Salmonella sp.
For experiment [5], the system named is Pseudomonas aeruginosa ATCC 27853.
Experiment [6] deals with Cryptococcus neoformans ATCC 32264.
Experiment [7] deals with Staphylococcus aureus ATCC 43300.
Experiment [8] deals with Staphylococcus aureus ATCC 29213.
The test system of experiment [9] is Salmonella enterica subsp. enterica serovar Enteritidis.
The test system of experiment [10] is Escherichia coli ATCC 25922.
Experiment [11] concerns Trichosporon beigelii KCTC 7707.
The subject of experiment [12] is Aspergillus fumigatus KCTC 6145.
Experiment [13] relates to Fusarium verticillioides KCTC 6149.
For experiment [14], the system named is Candida krusei CCARM 14017.
In experiment [15] the test system is Aspergillus flavus KCTC 6905.
For experiment [16], the system named is Candida parapsilosis CCARM 14016.
The test system of experiment [17] is Candida tropicalis KCTC 7221.
Experiment [18] relates to Streptococcus uberis.
Experiment [19] concerns Leuconostoc lactis.
Experiment [20] deals with Bacillus cereus.
Experiment [21] concerns Listeria innocua.
Experiment [22] concerns Staphylococcus epidermidis.
The test system of experiment [23] is Micrococcus luteus.
The test system of experiment [24] is Staphylococcus aureus.
The subject of experiment [25] is Pasteurella multocida.
Experiment [26] deals with Pseudomonas aeruginosa 73.
For experiment [27], the system named is Acinetobacter baumannii 9931.
The subject of experiment [28] is Staphylococcus aureus 113.
For experiment [29], the system named is Acinetobacter baumannii ATCC 19606.
Experiment [30] deals with Bacillus subtilis ATCC 23857.
Experiment [31] concerns Pseudomonas aeruginosa ATCC 9027.
The subject of experiment [32] is Staphylococcus aureus 75.
For experiment [33], the system named is Escherichia coli 780.
In experiment [34] the test system is Staphylococcus epidermidis ATCC 12228.
For experiment [35], the system named is Pseudomonas aeruginosa 50.
The test system of experiment [36] is Escherichia coli 804.
The test system of experiment [37] is Acinetobacter baumannii 97830.
For experiment [38], the system named is Klebsiella pneumoniae ATCC 700603.
The test system of experiment [39] is Bifidobacterium longum subsp. infantis.
The test system of experiment [40] is Klebsiella pneumoniae WGLW2.
Experiment [41] relates to Acinetobacter baumannii ATCC 7978.
For experiment [42], the system named is Staphylococcus aureus ATCC 29231.
Experiment [43] has as its system Staphylococcus aureus MW2.
Experiment [44] concerns Enterococcus faecium E007.

With `CC[C@H](C)[C@H](NC(=O)[C@H](CCC(N)=O)NC(=O)[C@@H](N)CCCN=C(N)N)C(=O)N[C@@H](CCCN=C(N)N)C(=O)N[C@@H](CCCN=C(N)N)C(=O)N[C@@H](Cc1c[nH]c2ccccc12)C(=O)N[C@@H](Cc1c[nH]c2ccccc12)C(=O)N[C@@H](CCC(N)=O)C(=O)N[C@@H](Cc1c[nH]c2ccccc12)C(N)=O` [RQIRRWWQW], the MIC in [1] was 44.7 µM (≈ 63.2 µg/mL); in [2], at least 50 µM; in experiment [3], 50 µM (≈ 70.7 µg/mL); in experiment [4], 30 µM (≈ 42.4 µg/mL); in experiment [5], above 50 µM; in [6] it was 25 µM (≈ 35.3 µg/mL). For the same compound, the MIC in experiment [7] was above 50 µM; in experiment [8] it was above 50 µM; in [9] it was at least 50 µM; in experiment [10], above 50 µM.
Take `CC[C@H](C)[C@H](NC(=O)CNC(=O)[C@H](CCC(N)=O)NC(=O)[C@H](C)NC(=O)[C@@H](NC(=O)[C@H](CCCCN)NC(=O)[C@H](CCCCN)NC(=O)[C@H](CC(C)C)NC(=O)[C@H](C)NC(=O)[C@H](CC(N)=O)NC(=O)[C@H](C)NC(=O)CN)C(C)C)C(=O)N[C@@H](Cc1cnc[nH]1)C(=O)N[C@@H](CCC(=O)O)C(=O)N[C@@H](C)C(=O)N[C@H](C(=O)N[C@@H](CCCCN)C(=O)N[C@@H](CC(C)C)C(=O)N[C@H](C(=O)N[C@@H](CC(N)=O)C(=O)N[C@@H](CC(N)=O)C(=O)N[C@@H](Cc1cnc[nH]1)C(=O)N[C@H](C(=O)N[C@@H](CCC(N)=O)C(N)=O)C(C)C)[C@@H](C)CC)[C@@H](C)CC` [GANALKKVAQGIHEAIKLINNHVQ]: the MIC in experiment [11] was 2 µM (≈ 5.13 µg/mL); in [12], 24 µM and 16 µM; in experiment [13] it was 24 µM and 16 µM; in experiment [14], 6 µM and 4 µM; in [15], ≥ 32 µM and 12 µM; in [16] it was at least 64 µM. In addition, the MIC in experiment [17] was 2 µM and 1.5 µM.
As for `CC[C@H](C)[C@H](NC(=O)[C@H](CO)NC(=O)CNC(=O)[C@@H](NC(=O)[C@H](CC(C)C)NC(=O)CN)[C@@H](C)CC)C(=O)NCC(=O)N[C@@H](CCCCN)C(=O)N[C@@H](C)C(=O)N[C@@H](CC(C)C)C(=O)NCC(=O)NCC(=O)N[C@@H](CC(C)C)C(=O)N[C@@H](CC(C)C)C(=O)N[C@H](C(=O)N[C@@H](CC(=O)O)C(=O)N[C@H](C(=O)N[C@@H](CC(C)C)C(=O)N[C@@H](CCCCN)C(=O)N1CCC[C@H]1C(=O)N[C@@H](CCCCN)C(=O)N[C@@H](CC(C)C)C(=O)O)C(C)C)C(C)C` [GLIGSIGKALGGLLVDVLKPKL], the MIC in experiment [18] was at least 46.3 µM; in experiment [1], above 46.3 µM; in experiment [19], 23.1 µM (≈ 50 µg/mL); in experiment [20], at least 46.3 µM; in experiment [21], at least 46.3 µM; in experiment [22], at least 46.3 µM. Further, the figures for the minimal inhibitory concentration (MIC) in experiment [23], in experiment [24] and in [25] were at least 46.3 µM, above 46.3 µM and at least 46.3 µM, respectively.
As for `NCC(=O)N[C@@H](Cc1c[nH]c2ccccc12)C(=O)N[C@@H](CCCN=C(N)N)C(=O)N[C@@H](Cc1c[nH]c2ccccc12)C(=O)N[C@@H](Cc1c[nH]c2ccccc12)C(=O)N[C@@H](Cc1c[nH]c2ccccc12)C(=O)N[C@@H](CCCN=C(N)N)C(=O)N[C@@H](Cc1c[nH]c2ccccc12)C(=O)NCC(N)=O` [GWRWWWRWG], the MIC is at least 32 µM in experiment [26]; 8 µM (≈ 11 µg/mL) in [27]; 8 µM (≈ 11 µg/mL) in [28]; 32 µM (≈ 44 µg/mL) in [29]; 4 µM (≈ 5.5 µg/mL) in experiment [30]; 64 µM (≈ 88 µg/mL) in experiment [31]. Also, the MIC in experiment [32] was 8 µM (≈ 11 µg/mL); in experiment [5] it was 64 µM (≈ 88 µg/mL); in [33] it was 8 µM (≈ 11 µg/mL); in [34], 8 µM (≈ 11 µg/mL); in experiment [8], 8 µM (≈ 11 µg/mL); in experiment [35], at least 32 µM. The MIC in experiment [36] came out at 16 µM (≈ 22 µg/mL); in experiment [37], 16 µM (≈ 22 µg/mL); in experiment [38], 32 µM (≈ 44 µg/mL).
Turning to `NCCCC[C@H](NC(=O)CNC(=O)[C@H](Cc1ccccc1)NC(=O)[C@H](CCCCN)NC(=O)[C@@H](N)CCC(=O)O)C(=O)N[C@@H](CC(=O)O)C(=O)N[C@@H](CCCCN)C(=O)N[C@@H](CO)C(=O)N1CCC[C@H]1C(=O)N[C@@H](CCCCN)C(=O)N[C@@H](Cc1ccccc1)C(=O)N[C@@H](CCC(N)=O)C(=O)O` [EKFGKDKSPKFQ], the MIC in experiment [1] is 2090 µM (≈ 3000 µg/mL); in experiment [39], at least 2090 µM; in experiment [24], 2090 µM (≈ 3000 µg/mL).
In the case of `CC[C@H](C)[C@H](NC(=O)[C@H](CCCCN)NC(=O)[C@H](CCCCN)NC(=O)[C@H](CC(C)C)NC(=O)[C@@H](NC(=O)[C@H](CCCCN)NC(=O)[C@H](Cc1c[nH]c2ccccc12)NC(=O)[C@@H](N)CC(C)C)[C@@H](C)CC)C(=O)N[C@@H](Cc1c[nH]c2ccccc12)C(=O)N[C@@H](CCCN=C(N)N)C(=O)N[C@H](C(=O)N[C@@H](CC(C)C)C(=O)N[C@@H](CCCCN)C(=O)N[C@@H](CC(N)=O)C(=O)N[C@@H](Cc1c[nH]c2ccccc12)C(=O)N[C@@H](CCCN=C(N)N)C(=O)O)C(C)C` [LWKILKKIWRVLKNWR], the MIC in [40] was 29.4 µM (≈ 64 µg/mL); in experiment [41], at least 58.7 µM; in experiment [42], 14.7 µM (≈ 32 µg/mL); in experiment [43], 14.7 µM (≈ 32 µg/mL); in experiment [44], at least 58.7 µM.
